Assay [1] has as its system endothelial tube formation in co-cultures of ECFCs and ADSCs treated with VEGF. The assay is described as follows: cells. The assay is classed as cell-based, human. To be noted: for IC50: read-out: VEGF_ADSC\ECFC Angio CD31 TubeArea summarized IC50.
Assay [2] has as its system DLD-1. In words: cells. The format is cell-based. To be noted: for IC50 / Basal_Viability ATP DLD-1 IC50/EC50: assay number 23; for IC50: read-out: Basal_Viability ATP DLD-1 summarized IC50.
The subject of assay [3] is SW480. The assay is described as follows: cells. As to conditions: for IC50 / Basal_Viability ATP SW480 IC50/EC50: assay number 24; for IC50: read-out: Basal_Viability ATP SW480 summarized IC50. The format is cell-based.
Assay [4] relates to HCT116. In words: cells. The assay is classed as cell-based. To be noted: basal; for IC50 / Basal_Viability ATP HCT116 IC50/EC50: assay number 25; for IC50: read-out: Basal_Viability ATP HCT116 summarized IC50.
Assay [5] relates to HCT116 cells treated with a GSK3β inhibitor. In words: cells. The assay is classed as cell-based. To be noted: for IC50 / GSK3b inh pretreated_Viability ATP HCT116 IC50/EC50: assay number 26, GSK3b inhibitor pretreated; for IC50: read-out: GSK3b inh pretreated_Viability ATP HCT116 summarized IC50.
Assay [6] concerns Colo320. In words: cells. The assay is classed as cell-based. To be noted: for IC50 / Basal_Viability ATP Colo 320 IC50/EC50: assay number 27; for IC50: read-out: Basal_Viability ATP Colo 320 summarized IC50.
Assay [7] concerns HT-29. The assay is described as follows: cells. As to conditions: for IC50 / Basal_Viability ATP HT-29 IC50/EC50: assay number 28; for IC50: read-out: Basal_Viability ATP HT-29 summarized IC50. The assay is classed as cell-based.
Assay [8] deals with RKO. The assay is described as follows: cells. The assay is classed as cell-based. As to conditions: for IC50 / Basal_Viability ATP RKO IC50/EC50: assay number 29; for IC50: read-out: Basal_Viability ATP RKO summarized IC50.
Assay [9] concerns SNU-C1. In words: cells. The format is cell-based. As to conditions: for IC50 / Basal_Viability ATP SNU-C1 IC50/EC50: assay number 30; for IC50: read-out: Basal_Viability ATP SNU-C1 summarized IC50.
Assay [10] concerns ECFC/ADSC co-culture cell nuclei number. To be noted: for IC50: read-out: VEGF_ADSC\ECFC Angio Hoechst NucArea summarized IC50.

Each structure is given as a SMILES string.

The IC50 is the midpoint of a concentration-inhibition curve. Turning to `O=C(Nc1ccc(Cl)cc1)Nc1ccc(Cl)c(Cl)c1` [NCGC00164034-05], the IC50 in [1] is greater than 10 µM; in assay [2] (basal), 0.323 µM; in assay [3] (basal), 0.897 µM; in assay [4], 0.228 µM; in assay [5], 0.362 µM; in assay [6] (basal) it was 0.362 µM. The IC50 in assay [7] (basal) was 0.383 µM; in [8] (basal), 0.288 µM; in assay [9] (basal), 0.335 µM; in assay [10] it was greater than 10 µM.

As to `CCCCC(CC)COC(=O)CC(C(=O)OCC(CC)CCCC)S(=O)(=O)O` (stereo not shown) [NCGC00164140-07], the IC50 in [1] was greater than 10 µM; in [2] (basal) it was greater than 20 µM; in assay [3] (basal), greater than 20 µM; in [4], greater than 20 µM; in assay [5] it was 16.6 µM; in assay [6] (basal) it was greater than 20 µM. Also, the IC50 in assay [7] (basal) is greater than 20 µM; in assay [8] (basal), greater than 20 µM; in [9] (basal), greater than 20 µM; in assay [10], greater than 10 µM.

On to `CO[C@H]1O[C@@H]2O[C@@]3(C)CC[C@H]4[C@H](C)CC[C@@H]([C@H]1C)[C@@]24OO3` [NCGC00164591-04], for which the “VEGF_ADSC\ECFC Angio CD31 TubeArea IC50/EC50” value in [1] was greater than 10 µM. In assay [2] (basal), the “Basal_Viability ATP DLD-1 IC50/EC50” value is greater than 20 µM. The “Basal_Viability ATP SW480 IC50/EC50” value in assay [3] (basal) is given as greater than 20 µM. Moreover, the “Basal_Viability ATP HCT116 IC50/EC50” value in assay [4] is greater than 20 µM. The “GSK3b inh pretreated_Viability ATP HCT116 IC50/EC50” value in assay [5] is recorded as greater than 20 µM. For the same molecule, the “Basal_Viability ATP Colo 320 IC50/EC50” value in assay [6] (basal) is listed as greater than 20 µM. The “Basal_Viability ATP HT-29 IC50/EC50” value in assay [7] (basal) was greater than 20 µM. The “Basal_Viability ATP RKO IC50/EC50” value in [8] (basal) is greater than 20 µM. In addition, in [9] (basal), the “Basal_Viability ATP SNU-C1 IC50/EC50” value is given as greater than 20 µM. Also, the “VEGF_ADSC\ECFC Angio Hoechst NucArea IC50/EC50” value in assay [10] was greater than 10 µM.

For `Cl.NC1=NCC2c3ccccc3Cc3ccccc3N12` (stereo not shown) [NCGC00165791-04], the “VEGF_ADSC\ECFC Angio CD31 TubeArea IC50/EC50” value in assay [1] is on record as greater than 10 µM. The “Basal_Viability ATP DLD-1 IC50/EC50” value in assay [2] (basal) is greater than 20 µM. Moreover, in [3] (basal), the “Basal_Viability ATP SW480 IC50/EC50” value is reported as greater than 20 µM. Further, the “Basal_Viability ATP HCT116 IC50/EC50” value in [4] is given as greater than 20 µM. In addition, in assay [5], the “GSK3b inh pretreated_Viability ATP HCT116 IC50/EC50” value is greater than 20 µM. For the same molecule, the “Basal_Viability ATP Colo 320 IC50/EC50” value in [6] (basal) is greater than 20 µM. In assay [7] (basal), the “Basal_Viability ATP HT-29 IC50/EC50” value is greater than 20 µM. In addition, in assay [8] (basal), the “Basal_Viability ATP RKO IC50/EC50” value was greater than 20 µM. The “Basal_Viability ATP SNU-C1 IC50/EC50” value in assay [9] (basal) is given as greater than 20 µM. For the same molecule, the “VEGF_ADSC\ECFC Angio Hoechst NucArea IC50/EC50” value in assay [10] is greater than 10 µM.

`CCN(CC)C(=O)c1cccnc1` [NCGC00166026-02]: in assay [1], the “VEGF_ADSC\ECFC Angio CD31 TubeArea IC50/EC50” value is given as greater than 10 µM. For the same molecule, the “Basal_Viability ATP DLD-1 IC50/EC50” value in [2] (basal) is greater than 20 µM. For the same molecule, the “Basal_Viability ATP SW480 IC50/EC50” value in assay [3] (basal) is recorded as greater than 20 µM. Also, the “Basal_Viability ATP HCT116 IC50/EC50” value in assay [4] is greater than 20 µM. In assay [5], the “GSK3b inh pretreated_Viability ATP HCT116 IC50/EC50” value is greater than 20 µM. Further, in [6] (basal), the “Basal_Viability ATP Colo 320 IC50/EC50” value is reported as greater than 20 µM. The “Basal_Viability ATP HT-29 IC50/EC50” value in [7] (basal) was greater than 20 µM. Further, the “Basal_Viability ATP RKO IC50/EC50” value in assay [8] (basal) is listed as greater than 20 µM. Also, the “Basal_Viability ATP SNU-C1 IC50/EC50” value in assay [9] (basal) is greater than 20 µM. Also, the “VEGF_ADSC\ECFC Angio Hoechst NucArea IC50/EC50” value in assay [10] was greater than 10 µM.

As to `CCCCCCCCCCCCCCCCCC[N+](C)(C)CCC[Si](OC)(OC)OC.[Cl-]` [NCGC00166112-02], the “VEGF_ADSC\ECFC Angio CD31 TubeArea IC50/EC50” value in assay [1] is reported as greater than 10 µM. Also, in assay [2] (concentration response), the “Basal_Viability ATP DLD-1 IC50/EC50” value was greater than 20 µM. Also, the “Basal_Viability ATP SW480 IC50/EC50” value in assay [3] (concentration response) is recorded as greater than 20 µM. Further, the “Basal_Viability ATP HCT116 IC50/EC50” value in assay [4] (concentration response) is given as greater than 20 µM. For the same molecule, in assay [5] (concentration response), the “GSK3b inh pretreated_Viability ATP HCT116 IC50/EC50” value was greater than 20 µM. Besides, in assay [6] (concentration response), the “Basal_Viability ATP Colo 320 IC50/EC50” value was greater than 20 µM. For the same molecule, the “Basal_Viability ATP HT-29 IC50/EC50” value in [7] (concentration response) is listed as greater than 20 µM. The “Basal_Viability ATP RKO IC50/EC50” value in assay [8] (concentration response) was greater than 20 µM. The “Basal_Viability ATP SNU-C1 IC50/EC50” value in assay [9] (concentration response) is reported as greater than 20 µM. Besides, the “VEGF_ADSC\ECFC Angio Hoechst NucArea IC50/EC50” value in assay [10] is greater than 10 µM.

Regarding `ClC1=C(Cl)C2(Cl)C(CBr)CC1(Cl)C2(Cl)Cl` (stereo not shown) [NCGC00166203-02], in assay [1], the “IC50/EC50, VEGF_ADSC\ECFC Angio CD31 TubeArea (assay number 2)” value is recorded as greater than 10 µM. Further, in assay [2] (basal), the “IC50/EC50, Basal_Viability ATP DLD-1 (assay number 23)” value is given as greater than 20 µM. Also, the “IC50/EC50, Basal_Viability ATP SW480 (assay number 24)” value in [3] (basal) was greater than 20 µM. The “IC50/EC50, Basal_Viability ATP HCT116 (assay number 25)” value in assay [4] is reported as greater than 20 µM. For the same molecule, the “IC50/EC50, GSK3b inh pretreated_Viability ATP HCT116 (assay number 26)” value in assay [5] (GSK3b inh pretreated) is greater than 20 µM. The “IC50/EC50, Basal_Viability ATP Colo 320 (assay number 27)” value in assay [6] (basal) is recorded as greater than 20 µM. Further, in assay [7] (basal), the “IC50/EC50, Basal_Viability ATP HT-29 (assay number 28)” value is listed as greater than 20 µM. For the same molecule, in assay [8] (basal), the “IC50/EC50, Basal_Viability ATP RKO (assay number 29)” value is recorded as greater than 20 µM. The “IC50/EC50, Basal_Viability ATP SNU-C1 (assay number 30)” value in assay [9] (basal) was greater than 20 µM. Moreover, in assay [10], the “IC50/EC50, VEGF_ADSC\ECFC Angio Hoechst NucArea (assay number 3)” value is given as 9.9697 µM.

(Values after paper PMC4503722, “Novel Phenotypic Outcomes Identified for a Public Collection of Approved Drugs from a Publicly Accessible Panel of Assays” (PLoS ONE, 2015).)
